# Test results taken from the METLIN SMRT retention time set (Domingo-Almenara et al. 2019).
# Experiment: gradient 5% acetonitrile 3 min, to 50% in 2 min, to 85% in 15 min, held 3 min, 100 µL/min
# Conditions: column: Zorbax Extend-C18 2.1 x 50 mm; eluents: water / acetonitrile, 0.1% formic acid
# Summary of the method: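 Pure standards were analyzed in mixtures of ~100 molecules using HPLC coupled to a quadrupole time-of-flight mass spectrometer, in both positive and negative ionization mode. Separation used a Zorbax Extend-C18 column (2.1 × 50 mm, 1.8 μm) at 100 μL/min, with water and acetonitrile each containing 0.1% formic acid. Dead and dwell volumes were 40 μL and 900 μL, and data were collected over 3 months. Retention time was read from computationally picked adduct peaks, each inspected manually.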
row,Compound,RP-LC retention time [s]
1,Cc1ccc(Cl)cc1N1CCN(C(=O)c2csc(C(=O)NC3CC3)n2)CC1,972
2,CCc1ccccc1NC(=O)CN1C(=O)C2CCCCN2c2ccc(S(=O)(=O)N(C)C)cc21 (centres undefined),918
3,CCOc1ccccc1NC(=O)C1CCN(S(=O)(=O)c2cn(C(C)C)cn2)CC1,846
4,Oc1ccc(Cl)cc1C1CC(c2ccc(Cl)cc2)=NC2(CCN(Cc3ccccc3)CC2)N1 (centres undefined),791
5,CCSc1nnc(-c2nn(C)c3c2CN(S(=O)(=O)c2ccc4c(c2)OCCO4)CC3)n1CC,895
6,CCOC(=O)C1CCN(S(=O)(=O)c2cc3c4c(c2)CCC(=O)N4CCC3)CC1,769
7,CCC(=O)NCc1nc2c(n1CC)CN(S(=O)(=O)c1ccc(Cl)cc1)CC2,538
8,CCOC(=O)C1CCCN(c2nc(Nc3ccc(F)cc3)c3n[nH]nc3n2)C1 (centres undefined),824
9,CCOc1ccc(S(=O)(=O)N2CCCC(C(=O)NCc3cccnc3)C2)cc1C (centres undefined),685
10,CCn1nc(C)c(CCN(C)C(=O)Nc2ccccc2Br)c1C,705
11,CC1CCN(C(=O)c2nnc(-c3ccc(S(=O)(=O)N4CCOCC4)cc3)o2)CC1,866
12,CCOc1ccc2nc(NC(=O)C3CCN(S(=O)(=O)c4cn(C)c(C)n4)CC3)sc2c1,772
13,CCOC(=O)CNC(=O)N1CCCC1c1ccc(C)cc1 (centres undefined),801
14,Cc1ccc(NC(=O)C2CCN(C(=O)c3ncn4c3COC(c3ccc(F)cc3)C4)CC2)cc1Cl (centres undefined),901
15,O=C(c1ccc2c(=O)n(Cc3ccccc3)c(N3CCCC3)nc2c1)N1CCN(c2ccccn2)CC1,655
16,CCC(C)(C)C(=O)NC1CCN(C2=NS(=O)(=O)C(c3ccc(C(C)C)cc3)=C2C)CC1,1020
17,O=C(NCCC1=CCCCC1)C1CCN(C(=O)c2ncn3c2COC(c2ccc(F)cc2)C3)CC1 (centres undefined),849
18,Cc1cc(C)n(CCN2CCN(C(=O)Cc3cccs3)CC2)n1,548
19,Cn1cc(CN2CCC(C(=O)NC3CCCCC3)CC2)c2cc(Cl)ccc21,702
20,CCCc1nc2cccnc2n1C1CCN(C(=O)Cc2cccs2)C1 (centres undefined),612

row,Compound,RP-LC retention time [s]
1,CCC1CN(C(=O)Nc2cccc(C(=O)OC)c2)c2ccccc2O1 (centres undefined),1020
2,COCCNC(=O)C1Cn2cccc2C(=O)N1C (centres undefined),570
3,COCCC1CCN(C(=O)CN(C)C(=O)c2ccc3cc[nH]c3c2)CC1,686
4,O=C(NCc1cccnc1)C1CN(C(=O)c2cccs2)CC12CCCCC2 (centres undefined),619
5,COC(=O)c1ccc(NC(=O)N2CC(C)Oc3ccccc32)cc1 (centres undefined),879
6,Cc1cccc2c(=O)n(C3CCN(C(=O)Nc4ccc5c(c4)OCCO5)CC3)cnc12,766
7,Cc1ccc(S(=O)(=O)N2CCC3(CC2)NCCN=C3NCc2ccc(C(F)(F)F)cc2)cc1,789
8,CC(C)c1noc(-c2ccn3c(CC(=O)NC4CCCCCC4)nnc3c2)n1,823
9,Cc1ccc(S(=O)(=O)N2C(=O)CCC2C(=O)NCc2ccc(Cl)cc2)cc1C (centres undefined),966
10,COc1ccc2c(c1)C1(CCN(C(=O)NCCc3ccccc3)C1)C(=O)N2C (centres undefined),757
11,CC(C)c1noc(C2(NC(=O)c3cccc(F)c3)CCCCC2)n1,1040
12,Cn1cccc1C(=O)N1CCc2nn(CC#N)c(=O)n2CC1,622
13,Cc1ccccc1S(=O)(=O)N1CCC2(CC1)CC(C)(O)CCO2 (centres undefined),778
14,Cc1ccc(CNC(=O)C2CCN(c3cnc(N4CCCC4)nc3)CC2)cc1C,716
15,CC(NC(=O)c1ccc2c(c1)nc1n2CCN(C2CCCCC2)C1=O)c1ccccc1 (centres undefined),836
16,Cc1ccc(NC(=O)N2CCC3(CC2)NC(=O)c2cc(F)ccc2N3C)cc1C,832
17,CCN1C=C(C(=O)OCc2c(C)noc2C)C(C)=NS1(=O)=O,831
18,CC1(C(=O)NCc2ccccc2)CCN(S(=O)(=O)c2ccc(Br)cc2)CC1,961
19,CCCNc1nnc(-c2nnc(CC)o2)c2ccccc12,647
20,C=CCn1c(=O)c2ccccc2n(Cc2nc(-c3ccc(OC)c(OC)c3)no2)c1=O,937

row,Compound,RP-LC retention time [s]
1,O=C(NCc1csc(C2CCCN(C(=O)c3ccc(F)cc3Cl)C2)n1)C1CC1 (centres undefined),756
2,Cc1ccc(CC(=O)NC2CCN(c3nnc4ccc(C(F)(F)F)cn34)CC2)cc1,815
3,O=C(NCc1ccc2c(c1)OCO2)C1CCCN(c2cnc3ccccc3n2)C1 (centres undefined),736
4,COCCC1CCN(C(=O)CN(C)C(=O)c2cccn2C)CC1,670
5,COc1cccc(CNC(=O)C2(C)CCCN(C(=O)Nc3ccc(F)c(Cl)c3)C2)c1 (centres undefined),959
6,CCC(C)NC(=O)N1CC=C(c2cn(C(C)C)c3ncccc23)CC1 (centres undefined),821
7,Cc1n[nH]c(C)c1Sc1ccccc1[N+](=O)[O-],739
8,NC(=O)c1nnn(Cc2cccc([N+](=O)[O-])c2)c1N,616
9,O=c1n(Cc2ccccc2Cl)nc2c(S(=O)(=O)N3CCCC3)cccn12,853
10,CCc1noc(COC2CCCN(C(=O)Cn3ccnc3)C2)n1 (centres undefined),586
11,CC(=O)N1CCCC1c1nc(C2CN(C(=O)NCc3ccco3)C2)no1 (centres undefined),617
12,Cc1cc(Cl)ccc1S(=O)(=O)N1CCC2(CC1)NCCCN=C2NC1CCCC1,810
13,Cc1cc2n(n1)CCC(=O)N2CCCC(=O)NCCCc1ccccc1,691
14,Cc1cc(Cl)ccc1NC(=O)C1CCN(S(=O)(=O)c2cc(C(=O)N3CCCC3)cs2)CC1,892
15,CCCS(=O)(=O)N1CCOc2ccc(CN3CCc4ccccc4C3)cc2C1,596
16,COc1ccc(Cl)cc1S(=O)(=O)N1CCC(C(=O)Nc2ccccc2)CC1,913
17,O=C1CC(C(=O)N2CCCC2)CN1CCc1c[nH]c2ccc(Cl)cc12 (centres undefined),731
18,CCC(C)(C)NS(=O)(=O)c1cc(-c2nc(C)cs2)n(CC(=O)N2CCCC2)c1,967
19,CCC(=O)Nc1cc2c(cc1S(=O)(=O)c1ccccc1)n(CC)c(=O)n2CC,786
20,Cc1ccc(CNC(=O)C2(C)CCCN(C(=O)Nc3cc(Cl)ccc3C)C2)cc1 (centres undefined),1080

# The remaining lines, values ahead:
row,RP-LC retention time [s],Compound
1,761,Cc1ccc(NC(=O)Cn2c(C(C)C)nc3c(c2=O)CCN(Cc2ccccc2)C3)cc1C
2,588,CC1CCN(c2ccc(-c3cccc(N)c3)nn2)CC1
3,700,CCN(CC)c1nc(-c2ccccc2F)nc2ccccc12
4,762,COc1ccc(-c2nnc(Cc3nc(-c4ccc(C)cc4)no3)o2)cc1OC
5,835,Cc1ccc(CNC(=O)CN2CCN(Cc3ccc(F)cc3)C2=O)cc1C
6,638,COCCn1ccc2nc(C)c(C(=O)NCCc3ccco3)cc2c1=O
7,608,O=C(COc1ccc(F)cc1)Nc1nc(CN2CCc3ccccc3C2)cs1
8,626,Cc1cc(C)c2[nH]c3c(c(=O)c2c1)CN(CC(=O)Nc1ccc2c(c1)OCO2)CC3
9,742,CCN(CC)c1ccc(Nc2nc(-c3ccc(OC)cc3)cs2)cc1
10,836,CCc1nnc(-c2ccc3ccn(CC(=O)NCCc4ccccc4)c3c2)o1
11,660,COc1ccc(C2=NC3(CCCCC3)N(CC(=O)Nc3cc(OC)cc(OC)c3)C2=O)cc1
12,946,Cc1ccc(NC(=O)c2nc(C)oc2C)c(F)c1
13,659,CN(C)C(=O)c1cccc(COc2ccc(N3C(N)=NC(N)=NC3(C)C)cc2Cl)c1
14,943,COc1cccc(-c2noc(Cc3nnc(-c4ccc(F)cc4)o3)n2)c1OC
15,988,CCN1C(=O)C(C)(C(=O)Nc2ccc(F)c(Cl)c2)Oc2cccnc21 (centres undefined)
16,1080,Cn1nccc1C(=O)N1CCc2c([nH]c3ccccc23)C1c1ccc(Cl)cc1 (centres undefined)
17,950,COc1ccc(CNC(=O)Cn2cnc3c(sc4nc(-c5ccccc5)ccc43)c2=O)cc1
18,983,Cn1cc(-c2nc(C(=O)NCc3cccc(C(F)(F)F)c3)cs2)c2cccnc21
19,569,CC(=O)Nc1c(C)nn(-c2ccccc2)c1N1CCC(C(=O)N2CCN(c3ccccn3)CC2)CC1
20,807,Cc1ccc(CNC(=O)C(C)n2nc(C)c3nn(-c4ccccc4)c(C)c3c2=O)o1 (centres undefined)
21,967,Fc1ccc(-c2nn3c(CSc4ccccc4)nnc3s2)cc1
22,773,Cc1ccccc1S(=O)(=O)N1CCC(n2cnnc2-c2ccccc2)CC1
23,704,Cc1oc(-c2[nH]ncc2C(=O)N2CCCC2)cc1S(=O)(=O)Nc1cccc(F)c1
24,684,COc1cc(OC)cc(-c2nc(-c3ccc4c(c3)ncn4CCN3CCCC3)no2)c1
25,747,Fc1ccc(-c2nnc(Cc3nc(-c4cccnc4)no3)o2)cc1
26,1010,CCn1c(=O)c(N2CCC(NC(=O)Nc3cc(C)cc(C)c3)CC2)nc2cccnc21
27,719,Cc1cc(C)cc(Nc2c(-c3cccc(O)c3)nc3ncccn23)c1
28,1020,Cc1ccc(C(=O)N2CCCC(c3ccnc(Nc4ccc(F)cc4)n3)C2)s1 (centres undefined)
29,1080,CCOC(=O)c1cnc(N2CCN(c3ccc(OC)cc3)CC2)c2ccccc12
